# Values quoted from earlier work as cited in patent US8133524B1, “Food composition for hemophagous insects” (Tokitae LLC, priority 2010, dated 2012).
# Entries after “also recorded” stand apart in the source; their conditions may differ.
# Test system: Aedes aegypti mosquitoes
# Details: mosquitoes fed with human red blood cells or blood
smiles,measurement,value
CC[C@H](C)[C@H](N)C(=O)O [isoleucine],effect of isoleucine supplementation on egg production / egg-laying,enhanced egg production rate; also recorded: enhanced egg-laying after blood feeding
